Results: patent US20150160214A1, “Quantitation of Cellular Adhesion Dynamics Across Immobilized Receptors Under Rheological Shear Flow” (Mayo Foundation for Medical Education and Research, priority 2013, published 2015)
Where “and” joins values, the source holds several entries; their conditions need not be identical. Equal values may be shown once.

How the values were obtained:
[1] = test system: T1, platelet GP1bα (Homo sapiens); assay: Platelet pause times and translocation velocities on immobilized A1 under shear flow, parallel-plate flow chamber (Example 1); assay type: cell-based; conditions: 300 μM peptide incubated with immobilized A1-1261; 66 μM in whole blood and buffer
T1 construct: perfused at low shear to enable platelets to attach to the surface immobilized domains; endogenous in cells; host or cells: platelets in citrated whole blood of healthy donors
Text: (§1) To understand the effect of the N-terminal peptide on the function of the A1-domain of vWF, the protein was expressed with (A1-1238) and without the N-terminal peptide (A1-1261). The inventor used a flow chamber to measure the dynamics of platelet interactions with A1-1238 and A1-1261. Each domain variant was immobilized on glass slides with a modified Cu^2+ chelating chemistry that enabled surface capture via the N-terminally fused histidine tag. This method ensured reproducible capture of the proteins eliminating possible structural issues associated with nonspecific immobilization on plastic or glass. The slides were completely inert to platelets. Next, 1 mL of citrated whole blood followed by Tris buffered saline was perfused at low shear to enable platelets to attach to the surface immobilized domains. After red cells were perfused away with buffer, the translocation of the remaining attached platelets over the surfaces was recorded at each shear rate and the velocities and pause times calculated from the coordinate data of each platelet on the surface as described in the methods. […] In addition, the translocation velocities were increased for A1-1238 relative to A1-1261. To determine if this N-terminal sequence could inhibit the catch bond when free in solution, the inventor incubated surface immobilized A1-1261 with excess free peptide and added the free peptide to 1 mL of whole blood and to our perfusion buffer and performed the assay.
(§2) Determination of platelet pause times. Determination of platelet pause times A Glycotech† rectangular parallel-plate flow chamber was mounted to slides with a chelated Cu 21 surface obtained from Microsurfaces Inc. # to which the A1-1261 and A1-1238 domains in TBS were immobilized by the 63His-Tag. Citrated whole blood (1 mL) obtained from informed consent of healthy donors with approval from the Baylor College of Medicine institutional review board followed by buffer was perfused through the chamber at 300s21 for A1-1261 and 700s21 for A1-1238 shear rate to attach platelets to the surface immobilized proteins using a syringe driven variable flow rate pump. The shear was increased incrementally and 1 min movies were recorded at 25 frames/s in phase contrast with 232 pixel binning on a Zeiss Axiocam MRm camera attached to a Zeiss Axio Observer D1 inverted microscope. Tracking analysis was performed using Mediacybernetics ImagePro Premier§. The resulting X-Y coordinate data for each platelet track was differentiated into instantaneous velocities using a Savitzky-Golay algorithm (Savitzky:1964) with a five data point window size and a second-order polynomial implemented into a Mathamatica notebook. These platelet tracks were retained for statistical analysis if the platelet was present for at least 1 s and travelled a total distance greater than 1 lm. Distance travelled in pixels was converted to lm given the camera pixel size=6.45 μm^2, pixel binning, and microscope magnification=400×. Pause times were determined by the amount of time (seconds) a platelets velocity was =0±0.13 μm/s, within the noise. Pause times for all platelet tracks are reported as the mean of the medians. Examples of this analysis for individual platelets and for multiple platelets are provided in the Supporting Information.
(§3) Frame by frame platelet trajectory analysis. Tracking coordinates of individual platelets in units of pixels were exported from ImagePro Premier as a text file and imported into a Mathematica notebook that calculates a Savitzky-Golay first derivative of the total distance traveled over time (Savitzky:1964). The distance was calculated from the X and Y coordinates with the following equation.
(§4) Pause times were determined from the length of time the platelet velocity remained within 0±4 pixel/sec=0.129 μm/sec as illustrated in FIG. 8B. Median pause times were calculated from velocity time profiles for all platelet tracks, stored in a list and translated to histograms for multiple platelets. […]

platelet GP1bα = biological target: T2, platelet GP1bα (Homo sapiens, UniProt P04275); assay: as above; assay type: cell-based
T2 construct: perfused at low shear to enable platelets to attach to the surface immobilized domains; endogenous in cells; host or cells: platelets in citrated whole blood of healthy donors
Text: as §1, §2, §3, §4

A1-1261 = biological target: T3, A1-1261 (Homo sapiens, UniProt P04275); assay: Binding of free N-terminal peptide to A1-1261 from thermal unfolding enthalpy (tryptophan fluorescence)
T3 construct: A1-1261 (amino acids D1261-P1471); made in house
Text: This would imply a specific interaction between this N-terminal sequence and the A1 domain when covalently linked in sequence. The only way to examine such a stabilization using spectroscopy was the measurement of thermal unfolding via fluorescence. Since the N-terminal peptide also contains a single tyrosine residue, the excitation wavelength was changed to λ=295 nm in order to measure tryptophan fluorescence and the effect of the peptide on the unfolding of the A1-domain was observed indirectly. Thermal scans of 2 μM A1-1261 were performed as a function of increasing amounts of the N-terminal peptide at 2° Celsius/min. […] Thermal scans were also done in the presence of a peptide with the same amino acid composition, but a scrambled sequence. The inset of FIG. 7A compares the raw fluorescence thermal scans in the presence of 300 μM scrambled and N-terminal peptides. Unfolding in the presence of excess scrambled peptide was equivalent to unfolding in the absence of either peptide. […] Fitting the enthalpy data to a simple single site binding model yields a dissociation constant of ≈46±6 μM.
Prior to all spectroscopic thermal scans, protein samples were equilibrated at 10° Celsius for 15 min to obtain a stable baseline. CD thermal scans between 10 and 95° Celsius were recorded at λ=222 nm using a protein concentration of 1 or 2 μM in a 1 cm quartz cell under moderate stirring. Scan rates were 0.5, 1.0, 1.5 and 2.0° Celsius/min. Integration time for each data point was 20 s with a 1 nm bandwidth. Fluorescence thermal scans between 10 and 95 Celsius were recorded at an emission λ=359 nm after excitation λ=280 nm or λ=295 nm using 2 μM protein in a 1 cm quartz cell with moderate stirring. Scan rates were 0.4 or 0.6, 0.9, 1.6 and 2.0° Celsius/min. At each temperature, relative fluorescence intensity was collected for 4 s and averaged. Thermal scans in the presence of N-terminal peptide at 2.0° Celsius/min were preceded by 1 h incubations at 20° Celsius with 0.02-300 μM peptide.
For the thermal unfolding studies in the presence of peptide, the inventor treated the change in enthalpy of unfolding, ΔHT*^‡ as an observable directly proportional to the degree of binding, X, because the T* was not dependent on peptide concentration.
For the simple single site binding model, A1+P<->A1P, where P is the peptide, the degree of binding is given by
where K is the binding affinity and the free peptide, [P], concentration is given in terms of the total protein, A1T, and peptide, PT, concentrations.

[2] = Far-UV CD spectra, secondary structure content (Example 1); assay type: physicochemical; conditions: free in solution
Text: Both proteins show a spectrum dominated by relatively high α-helical content as indicated by the two minima at λ=222 nm and 208 nm. […] By contrast, the spectrum of the N-terminal peptide is dominated by the contribution of random coil-structure and spectrally equivalent to a peptide containing a scrambled sequence but identical amino acid composition.

T1 sequence (P04275 1261-1471): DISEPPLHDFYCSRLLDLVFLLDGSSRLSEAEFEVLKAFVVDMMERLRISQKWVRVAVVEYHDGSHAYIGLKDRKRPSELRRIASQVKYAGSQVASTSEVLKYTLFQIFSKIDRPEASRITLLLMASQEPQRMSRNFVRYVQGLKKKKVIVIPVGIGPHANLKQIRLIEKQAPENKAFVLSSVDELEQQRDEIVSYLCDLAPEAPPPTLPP

Effect of free peptide on platelet pause times on immobilized A1-1261 [1]: significant decrease in pause times
Effect of free peptide on platelet translocation velocities on immobilized A1-1261 (platelet GP1bα; 300 μM peptide incubated with immobilized A1-1261, 66 μM in whole blood and buffer): increase in translocation velocities
Effect of peptide on unfolding enthalpy of A1-1238 (A1-1261): did not change the unfolding enthalpy
Kd (A1-1261; single site binding model fit to unfolding enthalpy, 2 μM A1-1261, 2° Celsius/min, read-out: Dissociation constant (KD) of N-terminal peptide binding to A1-1261): 46 µM and ~46 µM
β and random coil content of the sequence [2]: > 80%
Substance: H-QEPGGLVVPPTDAPVSPTTLYVE-OH [N-terminal peptide]
Effect of free peptide on platelet pause times or translocation velocities on immobilized A1-1238 (platelet GP1bα; free peptide added): did not significantly change the pause times or translocation velocities
